# Measurements reported in article PMC8242589, “Cardiac Safety of Kinase Inhibitors – Improving Understanding and Prediction of Liabilities in Drug Discovery Using Human Stem Cell-Derived Models” (Frontiers in Cardiovascular Medicine, 2021).
# Where two headings read alike, the source gives them in different places.
# Tests used:
# PI3K p110β = details: ref [23]–[25] (NVP-BEZ235), [27] (LY 294002), [28] (GDC-0941), [32] (TGX-221), [33] (CAL-101), [35] (CZC24832); read-out: Target IC50 p110β; cited from earlier work
# [1] = test system: hSC-CMs (Cor.4U Cardiomyocytes); assay: Apoptosis assay (CellEvent Caspase-3/7 Green, IncuCyte ZOOM kinetics over 24 h); type: cell-based, human; set-up: key to Caspase / Caspase MEAN: % of time-matched vehicle control (green object area); details: for activity at 0.03 µM / activity at 0.1 µM / activity at 0.3 µM / activity at 1 µM / activity at 3 µM / activity at 30 µM: Homo sapiens, Cardiomyocyte, normalized to time-matched vehicle control; for Apoptosis (caspase-3/7 activation), result in words / Time to reach the maximum number of apoptotic cells: hSC-CMs, monitored over 24 h
# Procedure, shortened: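 Cor.4U cardiomyocytes were cultured 4 days at 5% CO2 and 37 °C, given a 2 h baseline, then treated with compound for 24 h. Caspase-3/7 green nuclear signal was imaged every 2 h, and total green object area per well (μm^2/well) was normalized to the time-matched vehicle control. At least three replicates were run per concentration.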
# PI3K p110α = details: ref [23]–[25] (NVP-BEZ235), [27] (LY 294002), [28] (GDC-0941), [31] (HS-173), [33] (CAL-101); read-out: Target IC50 p110α; cited from earlier work
# PI3K p110γ = details: ref [23]–[25] (NVP-BEZ235), [28] (GDC-0941), [33] (CAL-101), [35] (CZC24832); read-out: Target IC50 p110γ; cited from earlier work
# PI3K p110δ = details: ref [23]–[25] (NVP-BEZ235), [27] (LY 294002), [28] (GDC-0941), [33] (CAL-101); read-out: Target IC50 p110δ; cited from earlier work
# [2] = test system: hSC-CMs (Cor.4U Cardiomyocytes); assay: ATP assay (CellTiter-Glo Luminescent Cell Viability Assay); type: cell-based, human; details: for viability at 0.03 µM / viability at 0.3 µM / viability at 3 µM / viability at 30 µM: Homo sapiens, Cardiomyocyte, normalized to time-matched DMSO control
# Procedure, shortened: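 Human stem-cell-derived Cor.4U cardiomyocytes (25,000–30,000/well), cultured 4 days at 37 °C, switched to serum-free BMCC medium 12 h before dosing. Cellular ATP quantified by CellTiter-Glo luminescence and normalized to time-matched DMSO controls; at least three replicates per concentration.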
# [3] = test system: hSC-CMs (Cor.4U Cardiomyocytes); assay: CardioExcyte 96 impedance and EFP recording (beating rate, base impedance); type: cell-based, human; details: for activity at 0.03 µM / activity at 0.3 µM / activity at 3 µM / activity at 30 µM: Homo sapiens, Cardiomyocyte, vs baseline before drug (taken as 100%)
# Procedure, shortened: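 hSC-CM monolayers (Cor.4U), cultured 4 days at 37 °C, 5% CO2, recorded spontaneously beating; impedance sampled at 1 kHz, EFP at 10 kHz. Beating rate taken as reciprocal of inter-spike interval in EFP. Each test concentration expressed as fractional change versus pre-drug baseline (100%).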
# GSK-3β = details: ref [46] (CHIR99021), [48] (TWS119); read-out: Target IC50 GSK-3β; cited from earlier work
structure (smiles),measurement,setting,value
"CS(=O)(=O)N1CCN(Cc2cc3nc(-c4cccc5[nH]ncc45)nc(N4CCOCC4)c3s2)CC1 [GDC-0941, 2-(1 H -Indazol-4-yl)-6-(4-methanesulfonyl-piperazin-1-ylmethyl)-4-morpholin-4-yl-thieno[3,2-d]pyrimidine]",IC50,PI3K p110β,[…]
same,activity at 0.03 µM,[1]; 2h,157%
same,activity at 0.03 µM,[1]; 24h,80%
same,activity at 0.1 µM,"[1]; 0.1 µM, 2h",138%
same,activity at 0.1 µM,"[1]; 0.1 µM, 24h",77%
same,activity at 0.3 µM,[1]; 2h,106%
same,activity at 0.3 µM,[1]; 24h,113%
same,activity at 1 µM,"[1]; 1 µM, 2h",104%
same,activity at 1 µM,"[1]; 1 µM, 24h",219%
same,"Apoptosis (caspase-3/7 activation), result in words",[1],induced apoptosis in hSC-CMs with a fast onset
same,Time to reach the maximum number of apoptotic cells,[1],≤ 12 h
O=c1cc(N2CCOCC2)oc2c(-c3ccccc3)cccc12 [LY 294002],IC50,PI3K p110β,[…]
same,viability at 0.03 µM,[2]; 2h,89%
same,viability at 0.03 µM,[2]; 24h,95%
same,viability at 0.3 µM,[2]; 2h,85%
same,viability at 0.3 µM,[2]; 24h,91%
same,viability at 3 µM,[2]; 2h,90%
same,viability at 3 µM,[2]; 24h,78%
same,viability at 30 µM,[2]; 2h,103%
same,viability at 30 µM,[2]; 24h,86%
same,Decrease of ATP level,"[2]; hSC-CMs, after 24 h of incubation",20–25%
same,activity at 0.03 µM,[1]; 2h,194%
same,activity at 0.03 µM,[1]; 24h,95%
same,activity at 0.3 µM,[1]; 2h,130%
same,activity at 0.3 µM,[1]; 24h,93%
same,activity at 3 µM,[1]; 2h,110%
same,activity at 3 µM,[1]; 24h,217%
same,activity at 30 µM,[1]; 2h,62%
same,activity at 30 µM,[1]; 24h,428%
same,"Apoptosis (caspase-3/7 activation), result in words",[1],induced apoptosis in hSC-CMs with a fast onset
same,Time to reach the maximum number of apoptotic cells,[1],≤ 12 h
same,activity at 0.03 µM,"[3]; 2h, read-out: BR",112%
same,activity at 0.03 µM,"[3]; 2h, read-out: Base Imp",72%
same,activity at 0.03 µM,"[3]; 24h, read-out: BR",111%
same,activity at 0.03 µM,"[3]; 24h, read-out: Base Imp",72%
same,activity at 0.3 µM,"[3]; 2h, read-out: BR",109%
same,activity at 0.3 µM,"[3]; 2h, read-out: Base Imp",71%
same,activity at 0.3 µM,"[3]; 24h, read-out: BR",94%
same,activity at 0.3 µM,"[3]; 24h, read-out: Base Imp",75%
same,activity at 3 µM,"[3]; 2h, read-out: BR",94%
same,activity at 3 µM,"[3]; 2h, read-out: Base Imp",70%
same,activity at 3 µM,"[3]; 24h, read-out: BR",63%
same,activity at 3 µM,"[3]; 24h, read-out: Base Imp",59%
same,activity at 30 µM,"[3]; 2h, read-out: BR",0%
same,activity at 30 µM,"[3]; 2h, read-out: Base Imp",50%
same,activity at 30 µM,"[3]; 24h, read-out: BR",0%
same,activity at 30 µM,"[3]; 24h, read-out: Base Imp",33%
same,"Effect on cardiomyocyte function in 3D surface plots (beating rate, base impedance, ATP), in words","[3]; hSC-CMs, 2 and 24 h",pronounced effects
same,Reduction of base impedance,"[3]; hSC-CMs, 2 and 24 h",more than 20%
same,Reduction of beating rate,"[3]; hSC-CMs, 2 and 24 h",more than 20%
Nc1cccc(-c2cc3c(Oc4cccc(O)c4)ncnc3[nH]2)c1 [TWS119],ATP,"[2]; 2h, 0.01 µM",94
same,ATP,"[2]; 2h, 0.1 µM",98
same,ATP,"[2]; 2h, 1 µM",98
same,ATP,"[2]; 2h, 10 µM",96
same,ATP,"[2]; 24h, 0.01 µM",102
same,ATP,"[2]; 24h, 0.1 µM",98
same,ATP,"[2]; 24h, 1 µM",98
same,ATP,"[2]; 24h, 10 µM",104
same,"Effect on ATP level, in words","[2]; hSC-CMs, up to the highest test concentrations",did not impact the ATP level
same,Caspase,"[1]; 2h, 0.01 µM",142
same,Caspase,"[1]; 2h, 0.1 µM",127
same,Caspase,"[1]; 2h, 1 µM",127
same,Caspase,"[1]; 2h, 10 µM",105
same,Caspase,"[1]; 24h, 0.01 µM",137
same,Caspase,"[1]; 24h, 0.1 µM",114
same,Caspase,"[1]; 24h, 1 µM",96
same,Caspase,"[1]; 24h, 10 µM",113
same,"Apoptosis (caspase-3/7 activation), result in words",[1],did not have any functionally-relevant effect
same,"Effect on cardiomyocyte function in 3D surface plots (beating rate, base impedance, ATP), in words",[3],minimal functional effect
same,"Effect on hSC-CMs function (base impedance and beating rate), in words",[3],did not produce functionally relevant changes
same,BR,"[3]; 2h, 0.01 µM",107
same,Base Imp,"[3]; 2h, 0.01 µM",90
same,BR,"[3]; 2h, 0.1 µM",102
same,Base Imp,"[3]; 2h, 0.1 µM",86
same,BR,"[3]; 2h, 1 µM",103
same,Base Imp,"[3]; 2h, 1 µM",91
same,BR,"[3]; 2h, 10 µM",103
same,Base Imp,"[3]; 2h, 10 µM",90
same,BR,"[3]; 24h, 0.01 µM",107
same,Base Imp,"[3]; 24h, 0.01 µM",86
same,BR,"[3]; 24h, 0.1 µM",105
same,Base Imp,"[3]; 24h, 0.1 µM",91
same,BR,"[3]; 24h, 1 µM",104
same,Base Imp,"[3]; 24h, 1 µM",88
same,BR,"[3]; 24h, 10 µM",99
same,Base Imp,"[3]; 24h, 10 µM",84
same,IC50,GSK-3β,30 nM
